Tests used:
primary cortical neurons [1] = test: Synaptogenesis assay of primary cortical neurons (image-based HCS) against paclitaxel-induced neurotoxicity; assay type: cell-based, mouse; conditions: for activity at 0.01 µM / activity at 1 µM: Mus musculus, Primary cortical neuron; for activity at 0.01 µM: read-out: A: Synaptogenesis (% of control) of test compound (10 nM) + paclitaxel (1 μM); for activity at 1 µM: read-out: B: Synaptogenesis (% of control) of test compound (1000 nM) + paclitaxel (1 μM); for attenuation of synaptogenesis inhibited by paclitaxel (in words): test compound 10 and 1000 nM prior to paclitaxel 1 μM, Figure 1A
Source text: (§1) Herein, we wish to report that an in vitro neurite outgrowth assay of cortical neurons integrated with an image-based high-content screening (HCS) platform is used to evaluate a commercially available library of 78 minoxidil-related derivatives,[22] leading to the identification of a series of analogues able to prevent or alleviate paclitaxel-induced neurotoxicity. The project began with screening compounds with the primary culture of cortical neurons from neonatal mice. More specifically, cerebral cortex neurons cultured from P0 C57BL/6J mouse pups were incubated with a test compound (10 and 1000 nM) prior to paclitaxel (1 μM) treatment. Subsequently, both neurite outgrowth and synaptogenesis were measured to evaluate the test compounds’ neuroprotective capacity. […] This unique feature is preserved for the core-structure screening of our in-house library in the following subject. Moreover, the substituent at the C4 position appears flexible in terms of structural diversity. Collectively, CSV0A024807, the only one displaying the best neuroprotective potency on both neurite outgrowth and synaptogenesis assays, was thus elected as a potential hit compound for further development.
(§2) Primary cortical or DRG cells were fixed with 4% paraformaldehyde for 15 min following compound and paclitaxel treatment. After washing with PBS, the fixed cells were permeabilized with PBS containing 0.05% Triton X-100 for 20 min and then blocked with commercial blocking buffer (#GTX30963; GeneTex, USA) at room temperature for 1 h. Subsequently, the cortical cells were stained for the extending processes and synaptic puncta by using anti-MAP2 (#MBS502140, 1:500; Mybiosource, USA) and anti-synaptophysin (#ab32127, 1:500; Abcam, UK) overnight. DRG cells were stained for the neurite and neuron nucleus by using anti-β III tubulin (#D71G9, 1:600; Cell Signaling, USA) and anti-NeuN monoclonal antibody (#MAB377, 1:400; Millipore, USA) overnight. On the second day, the samples were washed for 30 min with wash buffer and incubated with secondary antibodies (Alexa-488, 647 1:600; Thermo Fisher, USA) and 4 μg/mL Hoechst 33258 (#94403-1ML, 1:100; Merck, USA) at room temperature for 1 h. In the initial experiments of screening the potential neuroprotective compound for CIPN, ImageXpress^Micro (IXM) high-content imaging system (Molecular Devices, USA) driven by MetaXpress software was used. Images of treated cells were automatically acquired by using a 10× objective. Twenty-one images per well were taken in each of three channels (DAPI, FITC, and Cy5) to create a whole view of the entire neural network. The integrity of the neural network was evaluated using TIF images by importing them into MetaXpress software for analysis using the module for multiparameter, such as Neurite Outgrowth, Cell Scoring, and Transfluor. Furthermore, the score of synaptogenesis was analyzed in AcuityXpress software (Molecular Devices, USA).

primary cortical neurons [2] = test: Neurite outgrowth assay of primary cortical neurons (image-based HCS) against paclitaxel-induced neurotoxicity; assay type: cell-based, mouse; conditions: for activity at 0.01 µM / activity at 1 µM: Mus musculus, Primary cortical neuron; for activity at 0.01 µM: read-out: C: Neurite outgrowth (% of control) of test compound (10 nM) + paclitaxel (1 μM); for activity at 1 µM: read-out: D: Neurite outgrowth (% of control) of test compound (1000 nM) + paclitaxel (1 μM)
Source text: as §1, §2

[3] = test compound 10 nM + paclitaxel 1 μM, mean ± SE
[4] = test compound 1000 nM + paclitaxel 1 μM, mean ± SE

| SMILES | activity at 0.01 µM (primary cortical neurons [1]; [3]) [%] | activity at 1 µM (primary cortical neurons [1]; [4]) [%] | activity at 0.01 µM (primary cortical neurons [2]; [3]) [%] | activity at 1 µM (primary cortical neurons [2]; [4]) [%] | attenuation of synaptogenesis inhibited by paclitaxel (in words) (primary cortical neurons [1]) | activity at 0.01 µM (primary cortical neurons [1]) [%] | activity at 1 µM (primary cortical neurons [1]) [%] | activity at 0.01 µM (primary cortical neurons [2]) [%] | activity at 1 µM (primary cortical neurons [2]) [%] | protective effect in the neurite outgrowth assay (in words) (primary cortical neurons [2]; test compound 10 and 1000 nM prior to paclitaxel 1 μM, Figure 1A) |
| --- | --- | --- | --- | --- | --- | --- | --- | --- | --- | --- |
| CCN(CC)c1cc(N/N=C/c2ccncc2)nc(N(CC)CC)n1 [CSV0A029945] | 35 ± 6 | 50 ± 0.3 | 41 ± 8 | 75 ± 8 | – | – | – | – | – | – |
| CC(C)(C)c1ccc(C(=O)NNc2cc(N3CCCC3)nc(N3CCCC3)n2)cc1 [CSV0A062713] | 33 ± 1 | 36 ± 2 | 85 ± 8 | 74 ± 5 | – | – | – | – | – | – |
| Oc1ccc(Br)cc1/C=N/Nc1cc(N2CCOCC2)nc(N2CCOCC2)n1 [CSV0A013030] | 26 ± 2 | 26 ± 3 | 76 ± 5 | 89 ± 11 | – | – | – | – | – | – |
| CCCN(CCC)c1cc(N/N=C/c2cc(Br)ccc2O)nc(N(CCC)CCC)n1 [CSV0A020330] | 22 ± 3 | 45 ± 7 | 27 ± 2 | 45 ± 3 | – | – | – | – | – | – |
| O=[N+]([O-])c1ccc(/C=N/Nc2cc(N3CCCCCC3)nc(N3CCCCCC3)n2)cc1 [CSV0A012753] | 60 ± 1 | 61 ± 4 | 77 ± 7 | 75 ± 7 | – | – | – | – | – | – |
| Clc1ccc(/C=N/Nc2cc(N3CCOCC3)nc(N3CCOCC3)n2)cc1 [CSV0A024808] | 27 ± 1 | 25 ± 1 | 91 ± 1 | 89 ± 4 | – | – | – | – | – | – |
| CN(C)c1cc(NNC(=O)c2ccc(Cl)cc2)nc(N(C)C)n1 [CSV0A023089] | 38 ± 3 | 39 ± 6 | 47 ± 2 | 50 ± 5 | – | – | – | – | – | – |
| CN(C)c1cc(N/N=C/c2cccs2)nc(N(C)C)n1 [CSV0A055769] | 83 ± 1 | 97 ± 8 | 68 ± 3 | 62 ± 2 | significantly attenuated | – | – | – | – | – |
| CN(C)c1ccc(/C=N/Nc2cc(N3CCOCC3)nc(N3CCOCC3)n2)cc1 [CSV0A041617] | 30 ± 1 | 30 ± 1 | 93 ± 5 | 94 ± 1 | – | – | – | – | – | – |
| CCN(CC)c1cc(N/N=C/c2ccc(O)c(OC)c2)nc(N(CC)CC)n1 [CSV0B009489] | 34 ± 3 | 36 ± 3 | 39 ± 4 | 41 ± 3 | – | – | – | – | – | – |
| CN(C)c1ccc(/C=N/Nc2cc(N3CCCCC3)nc(N3CCCCC3)n2)cc1 [CSV0A041618] | 83 ± 2 | 64 ± 7 | 55 ± 2 | 55 ± 2 | significantly attenuated | – | – | – | – | – |
| CN(C)c1cc(NNC(=O)c2ccc(C(C)(C)C)cc2)nc(N(C)C)n1 [CSV0B002001] | 35 ± 3 | 35 ± 3 | 44 ± 3 | 44 ± 3 | – | – | – | – | – | – |
| Oc1cccc(/C=N/Nc2cc(N3CCCC3)nc(N3CCCC3)n2)c1 [CSV0A055770] | 24 ± 2 | 25 ± 2 | 82 ± 4 | 75 ± 4 | – | – | – | – | – | – |
| CN(C)c1ccc(/C=N/Nc2cc(N3CCCC3)nc(N3CCCC3)n2)cc1 [CSV0A027460] | 47 ± 1 | 33 ± 3 | 77 ± 1 | 63 ± 3 | – | – | – | – | – | – |
| COc1ccccc1/C=N/Nc1cc(N2CCCCC2)nc(N2CCCCC2)n1 [CSV0A061666] | 41 ± 1 | 42 ± 4 | 91 ± 3 | 89 ± 7 | – | – | – | – | – | – |
| CCCN(CCC)c1cc(NNC(=O)CCc2ccccc2)nc(N(CCC)CCC)n1 [CSV0D043578] | – | – | – | – | – | 38 ± 3 | 42 ± 4 | 42 ± 5 | 48 ± 1 | – |
| CN(C)c1cc(N/N=C/c2ccccc2)nc(N(C)C)n1 [CSV0A047582] | – | – | – | – | – | 73 ± 3 | 77 ± 9 | 69 ± 3 | 67 ± 3 | – |

| SMILES | activity at 0.01 µM (primary cortical neurons [1]; [3]) [%] | activity at 1 µM (primary cortical neurons [1]; [4]) [%] | activity at 0.01 µM (primary cortical neurons [2]; [3]) [%] | activity at 1 µM (primary cortical neurons [2]; [4]) [%] | attenuation of synaptogenesis inhibited by paclitaxel (in words) (primary cortical neurons [1]) | activity at 0.01 µM (primary cortical neurons [1]) [%] | activity at 1 µM (primary cortical neurons [1]) [%] | activity at 0.01 µM (primary cortical neurons [2]) [%] | activity at 1 µM (primary cortical neurons [2]) [%] | protective effect in the neurite outgrowth assay (in words) (primary cortical neurons [2]; test compound 10 and 1000 nM prior to paclitaxel 1 μM, Figure 1A) |
| --- | --- | --- | --- | --- | --- | --- | --- | --- | --- | --- |
| CCN(CC)c1cc(N/N=C/c2ccc(Cl)cc2)nc(N(CC)CC)n1 [CSV0A020149] | 43 ± 1 | 36 ± 1 | 52 ± 2 | 48 ± 3 | – | – | – | – | – | – |
| COc1cc(/C=N/Nc2cc(N3CCCC3)nc(N3CCCC3)n2)ccc1O [CSV0B016174] | 43 ± 3 | 36 ± 4 | 86 ± 3 | 76 ± 4 | – | – | – | – | – | – |
| CCCN(CCC)c1cc(N/N=C/c2ccc(Cl)cc2)nc(N(CCC)CCC)n1 [CSV0A061665] | 27 ± 3 | 27 ± 5 | 37 ± 7 | 27 ± 3 | – | – | – | – | – | – |
| CN(C)c1cc(N/N=C/c2cccc(O)c2)nc(N(C)C)n1 [CSV0A021190] | 37 ± 1 | 45 ± 1 | 43 ± 1 | 50 ± 2 | – | – | – | – | – | – |
| Oc1ccc(/C=N/Nc2cc(N3CCOCC3)nc(N3CCOCC3)n2)cc1 [CSV0A013029] | 72 ± 2 | 84 ± 6 | 58 ± 2 | 54 ± 5 | significantly attenuated | – | – | – | – | – |
| CN(C)c1cc(N/N=C/c2cccc([N+](=O)[O-])c2)nc(N(C)C)n1 [CSV0A027458] | 73 ± 3 | 73 ± 3 | 71 ± 3 | 65 ± 3 | – | – | – | – | – | – |
| COc1ccccc1/C=N/Nc1cc(N2CCOCC2)nc(N2CCOCC2)n1 [CSV0A013031] | 57 ± 1 | 33 ± 3 | 74 ± 3 | 67 ± 6 | – | – | – | – | – | – |
| O=C(CCc1ccccc1)NNc1cc(N2CCOCC2)nc(N2CCOCC2)n1 [CSV0C009114] | – | – | – | – | – | 48 ± 5 | 49 ± 3 | 70 ± 7 | 65 ± 3 | – |
| CCN(CC)c1ccc(/C=N/Nc2cc(N3CCCCC3)nc(N3CCCCC3)n2)cc1 [CSV0A023090] | 82 ± 4 | 86 ± 0.4 | 57 ± 4 | 58 ± 3 | – | – | – | – | – | – |
| CCN(CC)c1cc(N/N=C/c2ccccc2O)nc(N(CC)CC)n1 [CSV0B018834] | 30 ± 3 | 31 ± 3 | 39 ± 3 | 39 ± 2 | – | – | – | – | – | – |
| COc1cc(/C=N/Nc2cc(N3CCCCC3)nc(N3CCCCC3)n2)ccc1O [CSV0B006088] | 45 ± 6 | 52 ± 10 | 59 ± 5 | 66 ± 7 | – | – | – | – | – | – |
| O=C(NNc1cc(N2CCOCC2)nc(N2CCOCC2)n1)c1ccccc1 [CSV0A051549] | 86 ± 6 | 77 ± 7 | 71 ± 1 | 68 ± 1 | – | – | – | – | – | significant protective effect |
| CCN(CC)c1cc(N/N=C/c2cccc(O)c2)nc(N(CC)CC)n1 [CSV0A007879] | 38 ± 3 | 26 ± 5 | 42 ± 5 | 35 ± 4 | – | – | – | – | – | – |
| CCCN(CCC)c1cc(N/N=C/c2ccccc2OC)nc(N(CCC)CCC)n1 [CSV0A011999] | 33 ± 4 | 37 ± 2 | 45 ± 5 | 53 ± 3 | – | – | – | – | – | – |
| Cc1ccccc1C(=O)NNc1cc(N2CCOCC2)nc(N2CCOCC2)n1 [CSV0A062712] | 52 ± 7 | 51 ± 2 | 67 ± 10 | 63 ± 6 | – | – | – | – | – | – |
| COc1cc(/C=N/Nc2cc(N(C)C)nc(N(C)C)n2)ccc1O [CSV0A055768] | – | – | – | – | – | 35 ± 4 | 33 ± 0.2 | 71 ± 2 | 74 ± 6 | – |
| Oc1ccccc1/C=N/Nc1cc(N2CCCCC2)nc(N2CCCCC2)n1 [CSV0B023377] | 42 ± 1 | 42 ± 3 | 57 ± 2 | 57 ± 4 | – | – | – | – | – | – |

From PMC8958505, “Discovery of Potential Neuroprotective Agents against Paclitaxel-Induced Peripheral Neuropathy” (Journal of Medicinal Chemistry, 2022)
